What all share (type): cell-based, Propionibacterium acidipropionici
In assay [1] the test system is P. acidipropionici. As to the kind of experiment: Acid tolerance of P. acidipropionici with amino acid addition (growth in seed medium containing PA). To be noted: for Acid tolerance: seed medium with 2.5-5 g/L PA, 30° C., 40 h; for increase of the acid concentration that P. acidipropionici can tolerate: with addition of the amino acid, versus 2.5 g/L PA without amino acid. As for the experimental part:
The present invention provides a method for improving acid tolerance of P. acidipropionici by adding arginine and/or aspartic acid in the culture.
P. acidipropionici was first inoculated with sterile seed medium in anaerobic jars. The anaerobic jars were incubated at 30° C. for 60 h. To determine the effects of adding amino acids on acid tolerance of P. acidipropionici, the culture broth was transferred into anaerobic jars containing fresh seed medium with 2.5-5 g/L PA, 5-30 mM arginine and/or 5-30 mM aspartic acid added. The strains were then incubated at 30° C. for 40 h.
The P. acidipropionici was bought from China General Microbiological Culture Collection, and the strain code is CGMCC 1.2230.
The seed medium: 10 g/L yeast extract, 5 g/L tryptic soy broth, 1.5 g/L KH2PO4, 2.5 g/L K2HPO4, pH 7.0.
To determine the effects of adding arginine on acid tolerance of P. acidipropionici, the strains were inoculated with an inoculum size of 1% (v/v) into anaerobic jars containing 100 mL sterile seed medium. The anaerobic jars were incubated at 30° C. for 60 hours. And then, the culture broth was transferred into anaerobic jars containing fresh seed medium with 2.5-5 g/L PA and 0-30 mM arginine by an inoculum size of 1% (v/v) and incubated at 30° C. for 40 hours.
To determine the effects of adding aspartic acid on acid tolerance of P. acidipropionici, the strains were inoculated with an inoculum size of 1% (v/v) into anaerobic jars containing (volume: 100 mL) 100 mL sterile seed medium. The anaerobic jars were incubated at 30° C. for 60 hours. And then, the culture broth was transferred into anaerobic jars containing fresh seed medium with 2.5-5 g/L PA and 0-30 mM aspartic acid by an inoculum size of 1% (v/v) and incubated at 30° C. for 40 hours.

In assay [2] the test system is P. acidipropionici. Kind of assay: PA production of P. acidipropionici with amino acid addition (fermentation, HPLC analysis). To be noted: 30° C., 150 h. As for the experimental part: To determine the effects of adding amino acids on PA production of P. acidipropionici, P. acidipropionici was inoculated with sterile seed medium in anaerobic jars. The anaerobic jars were incubated at 30° C. for 60 h. The culture broth was then transferred into anaerobic jars containing fresh culture medium. The PA fermentations with culture medium with or without addition of arginine and aspartic acid. The PA fermentations with culture medium without addition of arginine and aspartic acid were used as control.
The culture medium: 10 g/L yeast extract, 5 g/L tryptone, 1.5 g/L KH2PO4, 2.5 g/L K2HPO4, 25 g/L glycerol, 10 mg/L CoCl2, 30 g/L CaCO3, 5-30 mM arginine and/or 5-30 mM aspartic acid, pH 7.0.
To determine the effects of adding arginine on PA production of P. acidipropionici, the strains were inoculated with an inoculum size of 1% (v/v) into anaerobic jars containing 100 mL sterile seed medium. And then the seed culture was inoculated with an inoculum size of 10% (v/v) into anaerobic jars (volume: 100 mL) containing 50 mL culture medium into which certain amount of arginine was added. The anaerobic jars were incubated at 30° C. for 150 h.
Fermentation broth was centrifuged at 8000 rpm for 5 min, and the supernatant liquid was collected for analysis of PA. The supernatant liquid was diluted by 10 times with 3.68 mol/L sulphuric acid and then filtered with 0.22 μm pore size filter. The samples were analyzed by HPLC. As shown in Table 1 and FIG. 2, addition of amino acids increased PA production.
To determine the effects of adding aspartic acid on PA production of P. acidipropionici, the strains were inoculated with an inoculum size of 1% (v/v) into anaerobic jars containing 100 mL sterile seed medium. And then the seed culture was inoculated with an inoculum size of 10% (v/v) into anaerobic jars (volume: 100 mL) containing 50 mL culture medium into which certain amount of aspartic acid was added. The anaerobic jars were incubated at 30° C. for 150 hours.
Fermentation broth was centrifuged at 8000 rpm for 5 min, and the supernatant liquid was collected for analysis of PA. The supernatant liquid was diluted by 10 times with 3.68 mol/L sulphuric acid and then filtered with 0.22 μm pore size filter. The samples were analyzed by HPLC. As shown in Table 2 and FIG. 2, addition of amino acids increased PA production.

Assay [3] deals with P. acidipropionici. Described as above.
Setting [4] is: amino acid concentration 10 mM in culture medium.
[5] abbreviates: amino acid concentration 20 mM in culture medium.
[6] abbreviates: amino acid concentration 30 mM in culture medium.

Results on 2 molecules are retold here after patent US9187773B2, “Method for improving acid tolerance of Propionibacterium acidipropionici” (Jiangnan University, priority 2012, dated 2015).

With `N=C(N)NCCC[C@H](N)C(=O)O` [Arginine, arginine], the Acid tolerance in assay [1] (amino acid concentration 10 mM) was found to be 3 g/L; in assay [1] (amino acid concentration 20 mM) it was 4 g/L; in assay [1] (amino acid concentration 30 mM), 4 g/L. Also, the “increase of the acid concentration that P. acidipropionici can tolerate” value in assay [1] was 60%. The PA production in assay [2] (setting [4]) amounted to 10.66 g/L; in assay [2] (setting [5]), 10.60 g/L; in assay [2] (setting [6]), 13.99 g/L; in assay [3] (30 mM added at the logarithmic phase of fermentation), 12.60 g/L; in assay [3] (30 mM added at the stable phase of fermentation) it was 10.65 g/L.
Regarding `N[C@@H](CC(=O)O)C(=O)O` [Aspartic acid, aspartic acid], the Acid tolerance in assay [1] (amino acid concentration 10 mM) worked out at 2.5 g/L; in assay [1] (amino acid concentration 20 mM), 3 g/L; in assay [1] (amino acid concentration 30 mM), 3 g/L. Besides, the “increase of the acid concentration that P. acidipropionici can tolerate” value in assay [1] is 20%. In addition, the PA production in assay [2] (setting [4]) was determined as 12.54 g/L; in assay [2] (setting [5]) it was 12.97 g/L; in assay [2] (setting [6]), 12.87 g/L; in assay [3] (20 mM added at the logarithmic phase of fermentation) it was 12.75 g/L; in assay [3] (20 mM added at the stable phase of fermentation), 10.66 g/L.
